In patent US7285621B2, “Multiple branch peptide construction” (Ambrilia Biopharma, priority 1999, dated 2007):
Read-outs that look alike come from different tables or passages of the source.

Assays:
[1] = tested on: HIV-1NL4-3; test: HIV-1NL4-3 infection of C8166 cells (syncytia formation, p24 ELISA); format: cell-based; design: key to Syncytium formation: ++: number of syncytia present in the well were similar to that in control untreated well (35 to 40 syncitia per well); −: total absence of syncitia in the well; ±: presence of 1 to 3 syncitia in the well; details: for P24 / Syncytium formation: C8166 cells; for inhibition of syncytium formation and p24 production of HIV-infected cells: 5 μM; for HIV inhibition characteristics: Table 3, C8166 cells
Protocol: C8188 cells were infected with HIV to establish a baseline control. Similar C8188 cells were pretreated the invented MBPCs and then subjected to HIV to determine inhibition rates. The results are illustrated in FIGS. 1A, 1B and 2.
Samples of 3×10^5 C8166 cells were placed in 96-well plates in a volume of 100 μl of culture medium containing various concentrations of peptide. After a one hour treatment at 37° C., 100 μl of viral solution of HIV-1NL4-3 were added. The cells were exposed to the virus of one hour at 37° C. at a multiplicity of infection of 1,000 TCID50 per ml. After through washing, cells were replaced in 1 ml of R10 with the treatment in 24-well plates and cultured in a 37° C. incubator. C8166 culture medium was replaced at day-4 post-infection. During this assay, treatment with peptide was permanent (before, during and after infection). Assays on C8166 cells have been performed at least twice and in duplicate. Toxicity was evaluated by daily cell count and trypan-blue exclusion assay. Infection of C8166 T-Cells with HIV-1NL4-3 was assessed by virus-induced cytopathic effect (syncytia formation) and by quantification of p24 viral protein in the culture supernatants. Measurements of HIV-1 p24^gag concentrations in the culture supernatants were achieved by ELISA, with a detection cut-off of 5 pg/ml (p24 HIV kit, NEN Dupont, Belgium; Quanti-Kine software, RILAB, Genova, Italy).

[2] = tested on: C57/BL6 and Balb-C mice; test: Intra-cerebroventricular injection toxicity in mice; format: in vivo; details: 3×10^−3 M, 100 μg of peptide per 20 g mouse
[3] = tested on: H × 10 (HIV-1) strain
Protocol: SPC3 is (GPGRAF)8-(K)4-(K)2-K-βA-OH as disclosed in WO95/07929. D4 and D5 refer to days 4 and 5 of the experiment. OD stands for Optical Density. N.B. Experiments were performed with non diluted virus solution.

[4] = tested on: HIV-1NL4-3; test: HIV-1NL4-3 infection of human PBLs/PBMCs (p24 ELISA); format: cell-based
Protocol: Human peripheral blood lymphocytes (PBLs) obtained from healthy HIV-seronegative donor (Etablissement Francais du Sang, Marseille, France) were isolated by ficoll-Hypaque gradient centrifugation. Cells were cultured in R10 medium supplemented with 20 units/ml of interleukin-2 (IL-2, Proleukin, Chiron, The Netherlands). R10 medium consists of RPMI 1640 supplemented with 2 mM ultraglutamine (BioWhittaker, Vervires, Belgium), penicillin (100 units/ml), streptomycin (100 μg/ml), and 10% heat-inactivated fetal calf serum (BioWhittaker). Cells were first stimulated with phytohemaggiutinin (20 μg/ml)-supplemented R10 (PHA P, DIFCO, Detroit, Mich., USA) for three days. Then, the medium was replaced with R10 supplemented with IL2 (20 units/ml), and subsequently cultures and experiments were carried out in this medium in a 37° C. humidified incubator with 5% CO2.
Samples of 10^6 human PBLs were placed in 96-well plates in 100 μl of R10 containing various concentrations of peptide. After one hour treatment of 37° C., 100 μl of viral solution of HIV-1NL4-3 were added. The cells were exposed to the virus for one hour at 37° C. flushed with 5% CO2. The PBL culture medium was replaced every 3-4 days. The cell viability was assessed by cell counts and trypan-blue exclusion assay. The viral production in the culture supernatant was quantified by p24 ELISA test, as described supra. […]

[5] = tested on: HIV-1 W5A2A9 isolate; test: Inhibition of clinical isolates infectivity; format: cell-based; details: non-diluted virus solution
Excerpt: The gp41-derived MBPCs of the invention have been tested in vitro for their ability to inhibit HIV-induced syncytium formation, and infection of human lymphocytes by both HIV-1 and HIV-2 viruses (several laboratory strains including LAV-2B, an HIV-2 virus able to infect some CD4^−/GalCer^− cells, as well as clinical isolates such as JRCSF, P16/B6 and P16/C9). […] Similar results were obtained with other HIV strains and clinical isolates tested so far.
Example shown is the HIV-1 W5A2A9 isolate. N.B. Experiments were performed with non-diluted virus solution.

[6] = tested on: HIV-1 and HIV-2 viruses; test: In vitro inhibition of HIV-induced syncytium formation and infection of human lymphocytes; format: cell-based; details: HIV-1 and HIV-2 laboratory strains and clinical isolates
[7] = Molarity 1 × 10^−5, day 4, non diluted virus solution
[8] = Molarity 1 × 10^−6, day 4, non diluted virus solution
[9] = Molarity 5 × 10^−5, day 4, non diluted virus solution
[10] = Molarity 5 × 10^−5, day 5, non diluted virus solution
[11] = Molarity 5 × 10^−6, day 4, non diluted virus solution

Cc1cn([C@H]2C[C@H](N=[N+]=[N-])[C@@H](CO)O2)c(=O)[nH]c1=O [AZT, reference compound]
P24 ([1]; peptide 1 μm): 0 pg/mL | Syncytium formation ([1]; peptide 1 μm): − | P24 ([1]; peptide 10 μm): 0 pg/mL | Syncytium formation ([1]; peptide 10 μm): −

CC(C)C[C@H](NC(=O)[C@@H]1CCCN1C(=O)[C@H](CO)NC(=O)[C@H](Cc1ccc(O)cc1)NC(=O)CNC(=O)[C@H](CCC(N)=O)NC(=O)[C@@H](N)CCCNC(=N)N)C(=O)NCCCC[C@H](NC(=O)[C@H](CC(C)C)NC(=O)[C@@H]1CCCN1C(=O)[C@H](CO)NC(=O)[C@H](Cc1ccc(O)cc1)NC(=O)CNC(=O)[C@H](CCC(N)=O)NC(=O)[C@@H](N)CCCNC(=N)N)C(=O)NCCCC[C@H](NC(=O)[C@H](CCCCNC(=O)[C@H](CC(C)C)NC(=O)[C@@H]1CCCN1C(=O)[C@H](CO)NC(=O)[C@H](Cc1ccc(O)cc1)NC(=O)CNC(=O)[C@H](CCC(N)=O)NC(=O)[C@@H](N)CCCNC(=N)N)NC(=O)[C@H](CC(C)C)NC(=O)[C@@H]1CCCN1C(=O)[C@H](CO)NC(=O)[C@H](Cc1ccc(O)cc1)NC(=O)CNC(=O)[C@H](CCC(N)=O)NC(=O)[C@@H](N)CCCNC(=N)N)C(=O)NCCCC[C@H](NC(=O)[C@H](CCCCNC(=O)[C@H](CCCCNC(=O)[C@H](CC(C)C)NC(=O)[C@@H]1CCCN1C(=O)[C@H](CO)NC(=O)[C@H](Cc1ccc(O)cc1)NC(=O)CNC(=O)[C@H](CCC(N)=O)NC(=O)[C@@H](N)CCCNC(=N)N)NC(=O)[C@H](CC(C)C)NC(=O)[C@@H]1CCCN1C(=O)[C@H](CO)NC(=O)[C@H](Cc1ccc(O)cc1)NC(=O)CNC(=O)[C@H](CCC(N)=O)NC(=O)[C@@H](N)CCCNC(=N)N)NC(=O)[C@H](CCCCNC(=O)[C@H](CC(C)C)NC(=O)[C@@H]1CCCN1C(=O)[C@H](CO)NC(=O)[C@H](Cc1ccc(O)cc1)NC(=O)CNC(=O)[C@H](CCC(N)=O)NC(=O)[C@@H](N)CCCNC(=N)N)NC(=O)[C@H](CC(C)C)NC(=O)[C@@H]1CCCN1C(=O)[C@H](CO)NC(=O)[C@H](Cc1ccc(O)cc1)NC(=O)CNC(=O)[C@H](CCC(N)=O)NC(=O)[C@@H](N)CCCNC(=N)N)C(=O)NCCC(=O)O [RL1, (RQGYSPL)8-(K)4-(K)2-K-βA-OH]
cellular toxicity and lethal activity [2]: neither cellular toxicity nor lethal activity | Inhibition [3, 7]: 79.82% | Inhibition [3, 8]: 31.29% | Inhibition [3, 9]: 99.09% | Inhibition [3, 10]: 99.75% | Inhibition [3, 11]: 61.45%

(AcRQGYSPL)2-K-βA [Peptide 12]
Syncytium formation ([1]; peptide 1 μm): ++ (number of syncytia present in the well were similar to that in control untreated well (35 to 40 syncitia per well)) | Syncytium formation ([1]; peptide 10 μm): ++ (number of syncytia present in the well were similar to that in control untreated well (35 to 40 syncitia per well))

(D RQGYSPL)2-K-βA [Peptide 9]
Syncytium formation ([1]; peptide 1 μm): ++ (number of syncytia present in the well were similar to that in control untreated well (35 to 40 syncitia per well)) | Syncytium formation ([1]; peptide 10 μm): ++ (number of syncytia present in the well were similar to that in control untreated well (35 to 40 syncitia per well))

(D-LPSYGQR)8-K4-K2-K-βA
inhibition of HIV infection of C8166 cells ([1]; at a concentration of 1 μM): totally inhibit | inhibition of HIV infection of PBMCs ([4]; at a concentration of 1 μM): totally inhibit

(GPGRAF)8-(K)4-(K)2-K-βA-OH [SPC3]
Inhibition (%) of clinical isolates infectivity ([5]; [conc] 1 × 10^−5, HIV-1 W5A2A9 isolate): 85.7% | Inhibition (%) of clinical isolates infectivity ([5]; [conc] 1 × 10^−6, HIV-1 W5A2A9 isolate): 28.6% | Inhibition (%) of clinical isolates infectivity ([5]; [conc] 1 × 10^−7, HIV-1 W5A2A9 isolate): 0% | Inhibition (%) of clinical isolates infectivity ([5]; [conc] 5 × 10^−6, HIV-1 W5A2A9 isolate): 50.0% | Inhibition (%) of clinical isolates infectivity ([5]; [conc] 5 × 10^−7, HIV-1 W5A2A9 isolate): 0% | Inhibition (%) of clinical isolates infectivity ([5]; [conc] 5 × 10^−8, HIV-1 W5A2A9 isolate): 0% | Inhibition [3, 7]: 89.13% | p24 [3, 7]: 0.4865 ng/mL | Inhibition [3, 8]: 0% | p24 [3, 8]: 4.786 ng/mL | Inhibition [3, 9]: 98.89% | p24 [3, 9]: 0.05556 ng/mL | Inhibition [3, 10]: 98.47% | p24 [3, 10]: 0.09351 ng/mL | Inhibition [3, 11]: 50.78% | p24 [3, 11]: 2.216 ng/mL

(GYSPL)2-K-βA [Peptide 6]
Syncytium formation ([1]; peptide 1 μm): ± (presence of 1 to 3 syncitia in the well) | Syncytium formation ([1]; peptide 10 μm): ± (presence of 1 to 3 syncitia in the well)

(KQGYSPL)2-K-βA [Peptide 10]
Syncytium formation ([1]; peptide 1 μm): ++ (number of syncytia present in the well were similar to that in control untreated well (35 to 40 syncitia per well)) | Syncytium formation ([1]; peptide 10 μm): ++ (number of syncytia present in the well were similar to that in control untreated well (35 to 40 syncitia per well))

(LPSYGQR)8-K4-K2—K-βA
inhibition of syncytium formation and p24 production of HIV-infected cells [1]: 100%

(QGYSPL)2-K-βA [Peptide 5]
Syncytium formation ([1]; peptide 1 μm): ± (presence of 1 to 3 syncitia in the well) | Syncytium formation ([1]; peptide 10 μm): −

(RQG)2-K-βA [Peptide 4]
Syncytium formation ([1]; peptide 1 μm): ± (presence of 1 to 3 syncitia in the well) | Syncytium formation ([1]; peptide 10 μm): −

(RQGY)2-K-βA [Peptide 3]
Syncytium formation ([1]; peptide 1 μm): ± (presence of 1 to 3 syncitia in the well) | Syncytium formation ([1]; peptide 10 μm): ± (presence of 1 to 3 syncitia in the well)

(RQGY)8-(K)4-(K)2-K-βA-OH [(RQGY)8-K4-K2-K-βA]
inhibition of syncytium formation and p24 production of HIV-infected cells [1]: 100%

(RQGYS)2-K-βA-OH [Peptide 2]
HIV inhibition characteristics [1]: superior HIV inhibition characteristics | P24 ([1]; peptide 1 μm): 0 pg/mL | Syncytium formation ([1]; peptide 1 μm): − | P24 ([1]; peptide 10 μm): 0 pg/mL | Syncytium formation ([1]; peptide 10 μm): −

(RQGYSP)2-K-βA [Peptide 1]
Syncytium formation ([1]; peptide 10 μm): −

(RQGYSPL)2-K-βA [Peptide 11]
viral activity relative to controls ([1]; 0.1 micro-molar (μm), FIG. 1, C8166 cells): one tenth that seen in controls | viral activity ([1]; 5 μm, FIG. 1, C8166 cells): virtually no activity | viral activity ([1]; 10 μm, FIG. 1, C8166 cells): no viral activity | inhibition of syncytium formation and p24 production ([1]; HIV-1NL403 infected C8166 cells, FIG. 1): marked inhibition | HIV inhibition characteristics [1]: superior HIV inhibition characteristics | P24 ([1]; peptide 1 μm): 0 pg/mL | Syncytium formation ([1]; peptide 1 μm): − | P24 ([1]; peptide 10 μm): 0 pg/mL | Syncytium formation ([1]; peptide 10 μm): − | inhibition of HIV-1NL403 infected PBMCs ([4]; 0.1 μM, FIG. 2): 100%

(SPL)2-K-βA [Peptide 8]
Syncytium formation ([1]; peptide 1 μm): ++ (number of syncytia present in the well were similar to that in control untreated well (35 to 40 syncitia per well)) | Syncytium formation ([1]; peptide 10 μm): ± (presence of 1 to 3 syncitia in the well)

(YSPL)2-K-βA [Peptide 7]
Syncytium formation ([1]; peptide 1 μm): ± (presence of 1 to 3 syncitia in the well) | Syncytium formation ([1]; peptide 10 μm): ± (presence of 1 to 3 syncitia in the well)

RQGYSPL [monomeric RQGYSPL]
antiviral properties (HIV-induced syncytium formation, infection of human lymphocytes) [6]: inactive
